Laboratory results published in ChEMBL document CHEMBL4261497, “Nucleotide pyrophosphatase/phosphodiesterase 1 (NPP1) and its inhibitors” (Medchemcomm, 2017).
Each block holds one compound with its values, some of them ahead of it.

Legend:
[1] = target: T1, Ectonucleotide pyrophosphatase/phosphodiesterase family member 1 (Rattus norvegicus, UniProt Q924C3); test: Competitive-inhibition of Wistar rat NPP1 using p-Nph-5'-TMP as substrate measured after 5 mins by UPLC method
T1 sequence (Q924C3 whole entry): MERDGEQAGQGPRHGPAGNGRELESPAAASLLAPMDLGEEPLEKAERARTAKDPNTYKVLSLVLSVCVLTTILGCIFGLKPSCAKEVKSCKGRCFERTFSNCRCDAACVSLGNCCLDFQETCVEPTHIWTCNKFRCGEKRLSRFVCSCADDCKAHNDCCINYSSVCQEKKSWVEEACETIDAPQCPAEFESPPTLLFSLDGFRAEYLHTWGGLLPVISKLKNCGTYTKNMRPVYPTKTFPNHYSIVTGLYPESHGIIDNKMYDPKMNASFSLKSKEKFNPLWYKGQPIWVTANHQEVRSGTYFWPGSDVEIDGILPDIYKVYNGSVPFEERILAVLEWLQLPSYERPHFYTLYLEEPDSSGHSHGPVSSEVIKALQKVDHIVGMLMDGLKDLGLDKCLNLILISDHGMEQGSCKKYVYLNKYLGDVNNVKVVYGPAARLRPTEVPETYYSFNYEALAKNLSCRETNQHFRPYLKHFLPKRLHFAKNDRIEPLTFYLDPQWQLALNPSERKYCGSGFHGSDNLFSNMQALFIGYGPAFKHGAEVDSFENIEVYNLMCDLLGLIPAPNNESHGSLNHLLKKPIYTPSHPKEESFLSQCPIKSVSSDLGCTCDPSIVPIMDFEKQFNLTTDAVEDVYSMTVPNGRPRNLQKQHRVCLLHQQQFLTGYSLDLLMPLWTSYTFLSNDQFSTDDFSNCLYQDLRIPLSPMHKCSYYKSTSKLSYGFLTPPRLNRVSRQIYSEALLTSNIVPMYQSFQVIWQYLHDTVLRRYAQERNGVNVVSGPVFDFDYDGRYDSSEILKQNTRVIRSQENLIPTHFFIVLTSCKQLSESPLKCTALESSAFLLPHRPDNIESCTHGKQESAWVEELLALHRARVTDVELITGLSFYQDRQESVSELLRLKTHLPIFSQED

[2] = target: T2, Ectonucleotide pyrophosphatase/phosphodiesterase family member 1 (Homo sapiens, UniProt P22413); test: Competitive-inhibition of recombinant human N-terminal His-tagged soluble NPP1 (Val191 to Leu591 residues) expressed in mouse NSO cells using ATP as substrate after 30 mins by capillary electrophoresis method
T2 sequence (P22413 whole entry): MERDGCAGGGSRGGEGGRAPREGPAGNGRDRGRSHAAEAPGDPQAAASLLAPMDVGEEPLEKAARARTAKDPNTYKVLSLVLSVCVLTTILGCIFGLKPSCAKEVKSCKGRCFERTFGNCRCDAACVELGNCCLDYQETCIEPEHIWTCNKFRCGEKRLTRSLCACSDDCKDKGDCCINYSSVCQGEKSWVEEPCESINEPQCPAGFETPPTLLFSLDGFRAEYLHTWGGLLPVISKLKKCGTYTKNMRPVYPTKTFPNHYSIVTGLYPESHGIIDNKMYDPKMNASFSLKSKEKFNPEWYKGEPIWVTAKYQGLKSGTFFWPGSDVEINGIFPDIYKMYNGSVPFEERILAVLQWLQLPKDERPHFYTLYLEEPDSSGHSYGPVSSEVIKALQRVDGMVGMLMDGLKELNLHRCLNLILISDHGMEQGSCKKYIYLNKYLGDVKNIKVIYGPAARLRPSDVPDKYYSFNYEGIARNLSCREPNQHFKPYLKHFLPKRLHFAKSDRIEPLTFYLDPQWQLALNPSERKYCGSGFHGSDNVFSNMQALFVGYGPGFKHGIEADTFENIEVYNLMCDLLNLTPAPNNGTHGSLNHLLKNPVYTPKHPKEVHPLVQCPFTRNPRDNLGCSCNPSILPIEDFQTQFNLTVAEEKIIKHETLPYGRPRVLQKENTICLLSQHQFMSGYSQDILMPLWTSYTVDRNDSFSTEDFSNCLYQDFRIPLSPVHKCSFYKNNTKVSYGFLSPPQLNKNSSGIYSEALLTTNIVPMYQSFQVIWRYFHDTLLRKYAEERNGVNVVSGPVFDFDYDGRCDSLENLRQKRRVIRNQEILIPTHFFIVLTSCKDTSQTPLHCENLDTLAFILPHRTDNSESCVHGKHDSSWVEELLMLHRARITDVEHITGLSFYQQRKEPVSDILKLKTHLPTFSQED

[3] = target: T2, Ectonucleotide pyrophosphatase/phosphodiesterase family member 1; test: Competitive-inhibition of recombinant human NPP1 expressed in HEK293 cell membranes using p-Nph-5'-TMP as substrate pretreated for 10 mins followed by substrate addition and measured after 60 mins by capillary electrophoresis method
[4] = target: T2, Ectonucleotide pyrophosphatase/phosphodiesterase family member 1; test: Noncompetitive-inhibition of recombinant human NPP1 expressed in HEK293 cell membranes using p-Nph-5'-TMP as substrate pretreated for 10 mins followed by substrate addition and measured after 60 mins by capillary electrophoresis method
[5] = target: T2, Ectonucleotide pyrophosphatase/phosphodiesterase family member 1; test: Uncompetitive-inhibition of recombinant human N-terminal His-tagged soluble NPP1 (Val191 to Leu591 residues) expressed in mouse NSO cells using ATP as substrate by capillary electrophoresis method
[6] = target: T2, Ectonucleotide pyrophosphatase/phosphodiesterase family member 1; test: Uncompetitive-inhibition of recombinant human N-terminal His-tagged soluble NPP1 (Val191 to Leu591 residues) expressed in mouse NSO cells using ATP as substrate after 30 mins by capillary electrophoresis method
[7] = target: T2, Ectonucleotide pyrophosphatase/phosphodiesterase family member 1; test: Uncompetitive-inhibition of recombinant human N-terminal His-tagged soluble NPP1 (Val191 to Leu591 residues) expressed in mouse NSO cells using p-Nph-5'-AMP as substrate after 30 mins by capillary electrophoresis method
[8] = target: T2, Ectonucleotide pyrophosphatase/phosphodiesterase family member 1; test: Uncompetitive-inhibition of recombinant human N-terminal His-tagged soluble NPP1 (Val191 to Leu591 residues) expressed in mouse NSO cells using p-Nph-5'-TMP as substrate after 15 mins by capillary electrophoresis method
[9] = target: T2, Ectonucleotide pyrophosphatase/phosphodiesterase family member 1; test: Inhibition of recombinant human NPP1 expressed in COS7 cell membranes using p-Nph-5'-TMP as substrate pretreated for 10 mins followed by substrate addition and measured after 30 mins
[10] = target: T2, Ectonucleotide pyrophosphatase/phosphodiesterase family member 1; test: Inhibition of recombinant human NPP1 expressed in COS7 cell membranes using p-Nph-5'-TMP as substrate pretreated for 10 mins followed by substrate addition and measured after 30 mins by spectrophotometric method
[11] = target: T1, Ectonucleotide pyrophosphatase/phosphodiesterase family member 1; test: Inhibition of NPP1 in Wistar rat C6 cells using [gamma-32P]ATP as substrate pretreated for 30 mins followed by substrate addition and measured after 90 mins by TLC analysis; format: cell-based
[12] = target: T1, Ectonucleotide pyrophosphatase/phosphodiesterase family member 1; test: Mixed-inhibition of Wistar rat NPP1 using p-Nph-5'-TMP as substrate measured after 5 mins by UPLC method

Structure (SMILES): CSc1nc(N)c2ncn([C@@H]3O[C@H](COP(=O)(O)OP(=O)(O)OP(=O)(O)O)[C@@H](O)[C@H]3O)c2n1
Ki [1]: 20.5 µM
Ki [2]: 21.3 µM

Structure (SMILES): Nc1ncnc2c1ncn2[C@@H](C=O)O[C@@H](C=O)COP(=O)(O)OP(=O)(O)O
Ki [4]: 3.42 µM

Structure (SMILES): Nc1ncnc2c1ncn2[C@@H](C=O)O[C@@H](C=O)COP(=O)(O)OP(=O)(O)OP(=O)(O)O
Ki [1]: 9.8 µM
Ki [5]: 6.82 µM
Ki [6]: 6.96 µM
Ki [7]: 5.08 µM
Ki [8]: 4.09 µM

Structure (SMILES): COc1cc2cc(-n3cc(C)c4ccccc43)n3c4ccccc4c(C)c3c2cc1OC
IC50 [10]: 0.36 to 2.81 µM

Structure (SMILES): CSc1nc(N)c2ncn([C@@H]3O[C@H](COP(=O)(O)OP(=O)(O)O)[C@@H](O)[C@H]3O)c2n1
Ki [2]: 23.7 µM

Structure (SMILES): Nc1ncnc2c1ncn2[C@@H]1O[C@H](COP(=O)(O)CP(=O)(O)OP(=O)(O)O)[C@@H](O)[C@H]1O [DIPHOSPHOMETHYLPHOSPHONIC ACID ADENOSYL ESTER]
Ki [1]: 2.2 µM

Structure (SMILES): Nc1ncnc2c1ncn2[C@@H]1O[C@H](COP(=O)(O)CP(=O)(O)O)[C@@H](O)[C@H]1O [PHOSPHOMETHYLPHOSPHONIC ACID ADENOSYL ESTER]
Ki [2]: 24.3 µM
Ki [12]: 9.6 µM

More lines, now with the values ahead:

Ki [1]: 20.5 µM
Ki [2]: 14.6 µM
Ki [3]: 2.96 µM
Structure (SMILES): Nc1ncnc2c1ncn2[C@@H]1O[C@H](COP(=O)(O)OP(=O)(O)OP(=O)(O)O)[C@@H](OC(=O)c2ccc(C(=O)c3ccccc3)cc2)[C@H]1O

IC50 [9]: 1.9 to 5.5 µM
Structure (SMILES): CCC(Oc1ccc(C)cc1)c1nnc(SCC(=O)Nc2nc3ccccc3s2)o1 (centres undefined)

IC50 [11]: 12 µM
Structure (SMILES): Cc1nc(/N=N/c2ccc(S(=O)(=O)O)cc2S(=O)(=O)O)c(COP(=O)(O)O)c(C=O)c1O

IC50 [11]: 72 µM
Structure (SMILES): Cc1ccc(C(=O)Nc2ccc(S(=O)(=O)O)c3cc(S(=O)(=O)O)cc(S(=O)(=O)O)c23)cc1NC(=O)c1cccc(NC(=O)Nc2cccc(C(=O)Nc3cc(C(=O)Nc4ccc(S(=O)(=O)O)c5cc(S(=O)(=O)O)cc(S(=O)(=O)O)c45)ccc3C)c2)c1 [SURAMIN]
